{
  "source": "patent US20200182861A1",
  "about": "“METHOD FOR DIFFERENTIATION OF PLURIPOTENT STEM CELLS INTO VASCULAR BED CELLS” (Hoffmann-La Roche Inc., priority 2011, published 2020)",
  "key": {"[1]": {"tested_on": "HL60 cells with SC-derived ECs", "experiment": "Leukocyte-endothelial adhesion assay", "type": "cell-based, human", "settings": "SC-derived ECs stimulated, 1 nM", "method": "FIG. 16: Leukocyte-endothelial adhesion assay. Activated endothelial cells present adhesion molecules for the recruitment leukocytes. The response to 1 nM TNFα was studied by co-cultivating Calcein-stained HL60 cells with SC-derived ECs. Adhesion of HL60 cells to endothelial cells was quantified by measuring the fluorescence intensity.\n2×10^4 Stem Cell-derived endothelial cells/well were seeded onto 96-well plates and cultured for 2 days in EGM-2 medium (Lonza) until confluence. Media was changed with EGM-2 medium supplemented with 1 nM TNFα (R&D Systems). SC-derived ECs were TNFα-stimulated for 4 hours. Thereafter 1.5×10^5 Calcein-labeled HL60 cells were added to each 96 well. After an incubation of one hour medium was removed and Sc-ECs were PBS-washed. Lyse the plate with 1% NP-40 detergent solution for 15 minutes. Supernatants were transferred into optiplates and fluorescence measured in a microplate reader.\nTo determine whether the differentiation system generates bona fide ECs, we challenged the SC-derived ECs with proinflammatory cytokines and analyzed for an activated expression of effectors of immune cell migration. […] We further confirmed by flow cytometry the presence of ICAM1 and E-SELECTIN upon TNF-α as well as […] stimulation (FIG. 16). HLA-ABC expression served as control to analyze a general und cell type unspecific response to proinflammatory cytokines. […]"}, "ICAM1": {"tested_on": "ICAM1", "experiment": "Pro-inflammatory cytokine response assay, cell-based ELISA", "parameters": "species or system human", "settings": "1 nM, SC-derived ECs", "method": "FIG. 15A: Pro-inflammatory cytokine response assay. SC-derived ECs upregulate the expression of the adhesion molecule ICAM1 upon pro-inflammatory cytokine administration. Cell-based ELISA was used to measure the activation of SC-derived endothelial cells in response to 1 nM TNFα.\n(§1) 20 000 Stem Cell-derived endothelial cells/well were seeded onto 96-well plates and cultured for 2 days in EGM-2 medium (Lonza) until confluence. Media was changed with EGM-2 medium supplemented with 1 nM TNFα (R&D Systems). After an incubation of 24 hours SC-derived ECs were briefly PBS-washed and PFA-fixed Primary antibodies for human anti-ICAM and anti-E-Selectin were purchased from R&D Systems. An anti-mouseIgG/biotinylated (Amersham) as secondary antibody and a Streptavidin/Peroxidase complex (Amersham) were used. Luminescence was quantified in a microplate reader."}, "E-SELECTIN": {"tested_on": "E-SELECTIN", "experiment": "Pro-inflammatory cytokine response assay, cell-based ELISA", "parameters": "species or system human", "settings": "1 nM, SC-derived ECs", "method": "FIG. 15B: Pro-inflammatory cytokine response assay. SC-derived ECs upregulate the expression of the adhesion molecule E-SELECTIN upon pro-inflammatory cytokine administration. Cell-based ELISA was used to measure the activation of SC-derived endothelial cells in response to 1 nM TNFα.\nas §1"}},
  "data": [
    {"substance": "TNFα", "values": [
      {"measurement": "adhesion / recruitment of HL60 leukocytes", "setting": "[1]", "value": "significantly enhanced"},
      {"measurement": "ICAM1 expression", "setting": "ICAM1", "value": "significantly upregulated"},
      {"measurement": "E-SELECTIN expression", "setting": "E-SELECTIN", "value": "significantly upregulated"}
    ]}
  ]
}
